{"source": "patent US8314255B2", "about": "“Use of phthalimide and/or sulphonamide derivatives in the treatment of diseases which require reducing the TNF- α levels and an exogenous source of nitric oxide, phthalimide derivatives, sulphonamide derivatives, and a method for obtaining a sulphonamide derivative” (priority 2007, dated 2012)", "key": {"[1]": {"tested_on": "Salmonella typhimurium TA100", "assay": "AMES test, mutagenic evaluation in Salmonella typhimurium TA100 strain with/without metabolic activation (S9)", "type": "cell-based", "description": "The procedure was firstly developed by (MARON, D. M. and AMES, B. N. Mut. Res. v. 113, pp. 173-215, 1983)\nFor this assay, Salmonella typhimurium TA100 and TA102 strains from the mutagenicity laboratory of the “Faculdade de Ciências Farmacêuticas—UNESP Araraquara” were used. Such strains have the following characteristics: (AMES, 1983)\nThe positive controls are mutagenic compounds specific for each strain and test condition, with 25 μL/plate of sodium azide (1.25 μg/plate) and 100 μL of mitomycin (0.5 μg/plate) being the controls for TA100 and TA102, respectively, in the absence of metabolic activation. For assays with metabolic activation, the positive control for TA100 is 50 μL 2-antramine (1.25 μg/plate) and for TA102 it is 50 μL 2-aminofluorene (1.25 μg/plate).\nThe preincubation method was used.\nIn laminar flow, Salmonella typhimurium (TA100 and TA 102) strains were inoculated individually with a platinum loop, in the respective nutrient broths and maintained at 37° C., under constant stirring (160 rpm) during 14 hours, in order to achieve a density of 1 to 2×10^9 bacteria/mL.\nDifferent concentrations of the compounds were added into 100 μL of 0.2M phosphate buffer pH 7.4 (or 500 μL of the mixture S9 in metabolic activation assays) and incubated for 20-30 minutes at 37° C. Solutions containing the compounds had DMSO as the solvent. Thereafter, 2 mL of top agar supplemented with traces of histidine and biotin was added, homogenized and plated in glycosylated minimum medium. After solidification of the top agar, the plates were incubated for 48 hours at a 37° C. Then, the counting of the number of revertant colonies per plate was performed. All tested concentrations, positive and negative controls were run in triplicate.\nAfter 48 hours, the revertant colonies were counted manually, and the protoCOL Colony Counter Version 3.15.630 (1998-2001) SYNBIOSIS LTD system was used for the positive control.\nThe final data obtained from the assay was analyzed using the statistical software Salanal (Salmonella Assay Analysis) version 1.0 from the Research Triangle Institute, RTP, North Carolina, USA. Such software allows the dose-response effect to be evaluated by means of analysis of variance (ANOVA-test F) computations between the measurement of the number of revertants at the different tested concentrations (doses) and the negative control, followed by a linear regression. The software model chosen for analyzing the data was Bernstein's (BERNSTEIN, L. et al. Mutat. Res. v. 97, p. 267-281, 1982). The slope of the straight line from the linear portion of the dose-response curve is also provided by this software and corresponds to the number of revertants induced per measurement unit of the analyzed sample.\nFrom the results, the mutagenicity ratio (MR) was computed for each analyzed dose from each compound. MR is given by the following equation:\nMR=average number of revertants per test plate (spontaneous+induced revertants) […] average number of revertants per plate of the negative control (spontaneous revertants)\nThe spontaneous growing means that the number of revertants which developed on the plate, regardless of being induced or not, wherein values higher or equal to 2 are considered as a positive response (VALENT, G. V. et al. Env. Toxicol. Water Quality. v. 8, p. 371-381, 1993).\nThe mutagenicity test with metabolic activation system was performed with a microsomal fraction S9 (S9 mix) prepared from a liver homogenizate from Sprague Dawley rats, previously treated with Aroclor 1254, acquired in the freeze-dried form.\nThe procedure for this assay is the same, however, instead of the buffer, 500 μL of the S9 mixture should be added.\nThe S9 mixture has a viability of 4 hours from preparation when put on ice. The plates are then incubated for 48 hours at 37° C. After the required time has elapsed, the counting of the revertant colonies was carried out. All tested concentrations, positive and negative controls were run in triplicate."}, "[2]": {"tested_on": "abdominal writhing induced by acetic acid", "assay": "Abdominal writhing assay induced by acetic acid", "type": "in vivo", "details": "oral, mice, acetic acid 0.1N i.p. after 1 hour, writhings counted during 20 minutes", "description": "In order to evaluate the peripheral analgesic activity of the compounds, an abdominal writhing assay induced by acetic acid (Table 6) was carried out. In this assay, we could infer that compound ID has an important analgesic activity, inhibiting abdominal writhing by 66%. […] The analgesic activity may be related to the ability of these compounds to inhibit the cytokine TNFα, since it is known that this would be one of the mechanisms that explain the analgesia of molecules such as thalidomide.\nThe antinociceptive profile was evaluated through the abdominal writhing assay induced by acetic acid in mice. In this assay, Swiss mice from both genders were used, weighing from 21 to 28 grams, fasted for a time period of about 8 hours. The test substance was administered orally and had, as a carrier, 5% gum arabic. After 1 hour, the administration of acetic acid 0.1N (0.1 mL/10 g weight) was performed in the peritoneal cavity of the animals. Ten minutes after the injection of acetic acid, writhings were counted during 20 minutes."}, "[3]": {"tested_on": "leukocyte infiltration, peritonitis induced by thioglycolate", "assay": "Peritonitis assay induced by 3% thioglycolate", "type": "in vivo", "details": "300 μMol/Kg orally, mouse, 3% thioglycolate i.p., 4 h", "description": "In a second assay, the number of total leukocytes (10^6/mL) was evaluated in order to evaluate the ability to inhibit their infiltration in the inflammatory process.\nThe mice were treated with the substances being analyzed or carrier and after 1 h of oral administration, they were simultaneously subjected to the peritonitis assay, by administering intraperitoneally 1 ml of a 3% thioglycolate solution. 4 h after the administration of thioglycolate, the peritoneal cavity was washed with 3 ml of a HANKS solution (Balanced salt solution, free of Ca^2+ and Mg^2+). Next, the peritoneal wash was analyzed and the total counting of white blood cells was made in a Newbauer's chamber under an optical microscope with a 40× objective."}}, "data": [{"smiles": "Nc1ccc(S(=O)(=O)NO)cc1", "note": "[Compound IIA, 4-amino-N-hydroxybenzenesulphonamide]", "values": [{"measurement": "mutagenicity ratio (MR)", "setting": "[1]; TA 100, +S9, 0.98 μmol/plate", "value": 1.24}, {"measurement": "number of revertants per plate", "setting": "[1]; TA 100, +S9, 0.98 μmol/plate", "value": "160 ± 12.4", "unit": "revertants/plate"}, {"measurement": "mutagenicity ratio (MR)", "setting": "[1]; TA 100, +S9, 1.96 μmol/plate", "value": 1.36}, {"measurement": "number of revertants per plate", "setting": "[1]; TA 100, +S9, 1.96 μmol/plate", "value": "175.7 ± 2", "unit": "revertants/plate"}, {"measurement": "mutagenicity ratio (MR)", "setting": "[1]; TA 100, +S9, 3.92 μmol/plate", "value": 1.43}, {"measurement": "number of revertants per plate", "setting": "[1]; TA 100, +S9, 3.92 μmol/plate", "value": "185.3 ± 15", "unit": "revertants/plate"}, {"measurement": "mutagenicity ratio (MR)", "setting": "[1]; TA 100, +S9, 7.85 μmol/plate", "value": 1.59}, {"measurement": "number of revertants per plate", "setting": "[1]; TA 100, +S9, 7.85 μmol/plate", "value": "206 ± 13.6", "unit": "revertants/plate"}, {"measurement": "mutagenicity ratio (MR)", "setting": "[1]; TA 100, +S9, 15.7 μmol/plate", "value": 2.74}, {"measurement": "number of revertants per plate", "setting": "[1]; TA 100, +S9, 15.7 μmol/plate", "value": "354 ± 6.5", "unit": "revertants/plate"}, {"measurement": "mutagenicity ratio (MR)", "setting": "[1]; TA 100, −S9, 0.98 μmol/plate", "value": 0.99}, {"measurement": "number of revertants per plate", "setting": "[1]; TA 100, −S9, 0.98 μmol/plate", "value": "146.3 ± 5.1", "unit": "revertants/plate"}, {"measurement": "mutagenicity ratio (MR)", "setting": "[1]; TA 100, −S9, 1.96 μmol/plate", "value": 1.23}, {"measurement": "number of revertants per plate", "setting": "[1]; TA 100, −S9, 1.96 μmol/plate", "value": "180.5 ± 7.8", "unit": "revertants/plate"}, {"measurement": "mutagenicity ratio (MR)", "setting": "[1]; TA 100, −S9, 3.92 μmol/plate", "value": 1.22}, {"measurement": "number of revertants per plate", "setting": "[1]; TA 100, −S9, 3.92 μmol/plate", "value": "179 ± 11.3", "unit": "revertants/plate"}, {"measurement": "mutagenicity ratio (MR)", "setting": "[1]; TA 100, −S9, 7.85 μmol/plate", "value": 1.17}, {"measurement": "number of revertants per plate", "setting": "[1]; TA 100, −S9, 7.85 μmol/plate", "value": "172.7 ± 12.5", "unit": "revertants/plate"}, {"measurement": "mutagenicity ratio (MR)", "setting": "[1]; TA 100, −S9, 15.7 μmol/plate", "value": 1.19}, {"measurement": "number of revertants per plate", "setting": "[1]; TA 100, −S9, 15.7 μmol/plate", "value": "175 ± 2.8", "unit": "revertants/plate"}, {"measurement": "concentration above which the number of revertants is reduced by cell toxicity", "setting": "[1]; with metabolic activation", "value": "Above 15.7 μmol/plate"}, {"measurement": "Average (abdominal writhings)", "setting": "[2]", "value": 30.4}, {"measurement": "Cell Number avg (×106), total leukocytes", "setting": "[3]", "value": "4.0 ×106"}, {"measurement": "Inhibition % (leukocyte infiltrate)", "setting": "[3]", "value": 28.57, "unit": "%"}]}, {"smiles": "O=C1c2ccccc2C(=O)N1c1ccc(CCO[N+](=O)[O-])cc1", "note": "[Compound IE, 2-[4-(1,3-dioxo-1,3-dihydro-2H-isoindol-2-yl)phenyl]ethyl nitrate]", "values": [{"measurement": "mutagenicity ratio (MR)", "setting": "[1]; TA 100, +S9, 0.12 μmol/plate", "value": 2.8}, {"measurement": "number of revertants per plate", "setting": "[1]; TA 100, +S9, 0.12 μmol/plate", "value": "363 ± 25.2", "unit": "revertants/plate"}, {"measurement": "mutagenicity ratio (MR)", "setting": "[1]; TA 100, +S9, 0.25 μmol/plate", "value": 3.7}, {"measurement": "number of revertants per plate", "setting": "[1]; TA 100, +S9, 0.25 μmol/plate", "value": "478.7 ± 4.22", "unit": "revertants/plate"}, {"measurement": "mutagenicity ratio (MR)", "setting": "[1]; TA 100, +S9, 0.5 μmol/plate", "value": 4.86}, {"measurement": "number of revertants per plate", "setting": "[1]; TA 100, +S9, 0.5 μmol/plate", "value": "628 ± 40.8", "unit": "revertants/plate"}, {"measurement": "mutagenicity ratio (MR)", "setting": "[1]; TA 100, +S9, 1 μmol/plate", "value": 5.72}, {"measurement": "number of revertants per plate", "setting": "[1]; TA 100, +S9, 1 μmol/plate", "value": "739 ± 25.4", "unit": "revertants/plate"}, {"measurement": "mutagenicity ratio (MR)", "setting": "[1]; TA 100, +S9, 2 μmol/plate", "value": 5.79}, {"measurement": "number of revertants per plate", "setting": "[1]; TA 100, +S9, 2 μmol/plate", "value": "750 ± 13.6", "unit": "revertants/plate"}, {"measurement": "mutagenicity ratio (MR)", "setting": "[1]; TA 100, −S9, 0.12 μmol/plate", "value": 1.04}, {"measurement": "number of revertants per plate", "setting": "[1]; TA 100, −S9, 0.12 μmol/plate", "value": "143.3 ± 5", "unit": "revertants/plate"}, {"measurement": "mutagenicity ratio (MR)", "setting": "[1]; TA 100, −S9, 0.25 μmol/plate", "value": 0.99}, {"measurement": "number of revertants per plate", "setting": "[1]; TA 100, −S9, 0.25 μmol/plate", "value": "135.3 ± 12", "unit": "revertants/plate"}, {"measurement": "mutagenicity ratio (MR)", "setting": "[1]; TA 100, −S9, 0.5 μmol/plate", "value": 0.99}, {"measurement": "number of revertants per plate", "setting": "[1]; TA 100, −S9, 0.5 μmol/plate", "value": "136.3 ± 13", "unit": "revertants/plate"}, {"measurement": "mutagenicity ratio (MR)", "setting": "[1]; TA 100, −S9, 1 μmol/plate", "value": 0.89}, {"measurement": "number of revertants per plate", "setting": "[1]; TA 100, −S9, 1 μmol/plate", "value": "121.5 ± 14", "unit": "revertants/plate"}, {"measurement": "mutagenicity ratio (MR)", "setting": "[1]; TA 100, −S9, 2 μmol/plate", "value": 1.30}, {"measurement": "number of revertants per plate", "setting": "[1]; TA 100, −S9, 2 μmol/plate", "value": "177 ± 23.6", "unit": "revertants/plate"}, {"measurement": "Cell Number avg (×106), total leukocytes", "setting": "[3]", "value": "4.13 ×106"}, {"measurement": "Inhibition % (leukocyte infiltrate)", "setting": "[3]", "value": 26.25, "unit": "%"}]}]}
